{"source": "patent US10821195B2", "about": "“Compositions for therapeutics, targeted PET imaging and methods of their use” (Memorial Sloan Kettering Cancer Center, priority 2015, dated 2020)", "key": {"[1]": {"experiment": "Biodistribution and clearance of ^89Zr-HOPO and ^89Zr-DFO in healthy mice", "type": "in vivo, healthy athymic nude mice", "set-up": "biodistribution Spleen / biodistribution Stomach / biodistribution Large Intestine / biodistribution Small Intestine / biodistribution Kidney / biodistribution Bladder / biodistribution Muscle / biodistribution Bone / biodistribution Tail / biodistribution Blood / biodistribution Heart / biodistribution Lung / biodistribution Gall Bladder / biodistribution Liver: unit not given here", "from_the_text": "Significant uptake of ^89Zr-HOPO occurs in the gall bladder and intestines as well as the kidney. […] As ^89Zr-DFO is cleared exclusively through the kidneys and not through the hepatobiliary system, it is excreted from the body faster than ^89Zr-HOPO, as evidenced by the blood clearance curve (FIG. 10). While not wishing to be bound to theory, upon conjugation to an antibody, the pharmacokinetics of a ^89Zr-HOPO complex comprising ^89Zr-HOPO and an antibody can be superseded by those of the biomacromolecule, meaning that a difference in clearance pathways between ^89Zr-HOPO and ^89Zr-DFO should not be a concern. However, over the short circulation time of the Zr-ligand complexes, neither DFO nor HOPO show any signs of instability or bone accumulation."}, "[2]": {"experiment": "EDTA transchelation challenge of ^89Zr complexes", "type": "physicochemical", "conditions": "50-fold excess of EDTA, 37° C., various pHs, 7 days", "from_the_text": "(§1) In contrast, ^89Zr-HOPO is shown to be approximately impervious to the EDTA. […] This represents a significant improvement in the stability of the Zr-ligand complex at lower pH. […] Initially activity is seen in the bladder, gall bladder, and intestines."}, "[3]": {"experiment": "Partition coefficients of ^89Zr complexes at pH 7.4", "type": "physicochemical", "from_the_text": "Without having to be bound to any theory, the difference in clearance pathways between the two complexes is the difference in their partitions coefficients."}, "FIG. 2": {"experiment": "FIG. 2", "from_the_text": "Table printed on a drawing sheet, FIG. 2\nas §1\nFirst reader's note: Cell hatching encodes the percent-intact class given in the legend; the values show stability of the radiometal-chelator complexes against EDTA transchelation."}, "[4]": {"experiment": "Stability of ^89Zr complexes in human serum at 37° C. for 7 d (ITLC, SEC)", "conditions": "bare ligand complexes, one week", "experimental": "Seven day old samples of the Zr-ligand complexes were run down a size exclusion column to differentiate protein and ligand.\nSerum stability and immunoreactivity of ^89Zr-complexes were evaluated. To determine the stability in serum, ^89Zr-complexes were incubated in human serum at 37° C. for 7 d. The percentage of intact species was monitored by ITLC (Table 9).\n^89Zr-ligand and ^89Zr-ligand-antibody complexes were prepared according to the radiolabeling protocol as described above. For each ^89Zr complex, samples were made consisting of 900 μL human serum and 100 μL of the ^89Zr species and were placed in a heat block at 37° C. with agitation. Samples were monitored using radio-TLC before being added to the serum and then after 1 week of incubation. The stability of the complexes was measured as the percentage of ^89Zr that was retained at the origin of the ITLC strip and therefore still intact."}}, "note": "Values joined by “and” are separate entries in the source; they are usually repeats but may differ in a detail not shown here. Equal entries are not always repeated."}
{"smiles": "O=C1NCCCN2CCCCN3CCCNC(=O)c4cccc(=O)n4[O][89Zr]([O]n4c1cccc4=O)([O]n1c(cccc1=O)C2=O)[O]n1c(cccc1=O)C3=O", "note": "[^89Zr-HOPO]", "values": [{"measurement": "biodistribution Bladder", "setting": "[1]; 10 min", "value": "2.04 ± 1.06"}, {"measurement": "biodistribution Blood", "setting": "[1]; 10 min", "value": "3.24 ± 0.66"}, {"measurement": "biodistribution Bone", "setting": "[1]; 10 min", "value": "1.04 ± 0.44"}, {"measurement": "biodistribution Gall Bladder", "setting": "[1]; 10 min", "value": "6.61 ± 2.87"}, {"measurement": "biodistribution Heart", "setting": "[1]; 10 min", "value": "1.57 ± 0.22"}, {"measurement": "biodistribution Kidney", "setting": "[1]; 10 min", "value": "9.46 ± 2.71"}, {"measurement": "biodistribution Large Intestine", "setting": "[1]; 10 min", "value": "0.26 ± 0.15"}, {"measurement": "biodistribution Liver", "setting": "[1]; 10 min", "value": "3.29 ± 0.75"}, {"measurement": "biodistribution Lung", "setting": "[1]; 10 min", "value": "1.07 ± 0.17"}, {"measurement": "biodistribution Muscle", "setting": "[1]; 10 min", "value": "0.36 ± 0.06"}, {"measurement": "biodistribution Small Intestine", "setting": "[1]; 10 min", "value": "5.99 ± 1.18"}, {"measurement": "biodistribution Spleen", "setting": "[1]; 10 min", "value": "0.31 ± 0.04"}, {"measurement": "biodistribution Stomach", "setting": "[1]; 10 min", "value": "1.22 ± 0.39"}, {"measurement": "biodistribution Tail", "setting": "[1]; 10 min", "value": "4.25 ± 1.46"}, {"measurement": "Blood/Bone ratio", "setting": "[1]; 1 h", "value": "0.6 ± 0.4"}, {"measurement": "Muscle/Bone ratio", "setting": "[1]; 1 h", "value": "0.34 ± 0.15"}, {"measurement": "biodistribution Bladder", "setting": "[1]; 1 h", "value": "0.73 ± 0.36"}, {"measurement": "biodistribution Blood", "setting": "[1]; 1 h", "value": "0.17 ± 0.10"}, {"measurement": "biodistribution Bone", "setting": "[1]; 1 h", "value": "0.29 ± 0.09"}, {"measurement": "biodistribution Gall Bladder", "setting": "[1]; 1 h", "value": "6.94 ± 3.38"}, {"measurement": "biodistribution Heart", "setting": "[1]; 1 h", "value": "0.12 ± 0.06"}, {"measurement": "biodistribution Kidney", "setting": "[1]; 1 h", "value": "1.05 ± 0.51"}, {"measurement": "biodistribution Large Intestine", "setting": "[1]; 1 h", "value": "0.09 ± 0.06"}, {"measurement": "biodistribution Liver", "setting": "[1]; 1 h", "value": "0.22 ± 0.09"}, {"measurement": "biodistribution Lung", "setting": "[1]; 1 h", "value": "0.17 ± 0.09"}, {"measurement": "biodistribution Muscle", "setting": "[1]; 1 h", "value": "0.10 ± 0.03"}, {"measurement": "biodistribution Small Intestine", "setting": "[1]; 1 h", "value": "1.11 ± 0.35"}, {"measurement": "biodistribution Spleen", "setting": "[1]; 1 h", "value": "0.09 ± 0.03"}, {"measurement": "biodistribution Stomach", "setting": "[1]; 1 h", "value": "0.30 ± 0.15"}, {"measurement": "biodistribution Tail", "setting": "[1]; 1 h", "value": "0.81 ± 0.34"}, {"measurement": "Blood/Bone ratio", "setting": "[1]; 4 h", "value": "0.2 ± 0.2"}, {"measurement": "Muscle/Bone ratio", "setting": "[1]; 4 h", "value": "0.4 ± 0.3"}, {"measurement": "biodistribution Bladder", "setting": "[1]; 4 h", "value": "0.58 ± 0.27"}, {"measurement": "biodistribution Blood", "setting": "[1]; 4 h", "value": "0.05 ± 0.04"}, {"measurement": "biodistribution Bone", "setting": "[1]; 4 h", "value": "0.23 ± 0.12"}, {"measurement": "biodistribution Gall Bladder", "setting": "[1]; 4 h", "value": "1.00 ± 0.41"}, {"measurement": "biodistribution Heart", "setting": "[1]; 4 h", "value": "0.06 ± 0.01"}, {"measurement": "biodistribution Kidney", "setting": "[1]; 4 h", "value": "0.40 ± 0.14"}, {"measurement": "biodistribution Large Intestine", "setting": "[1]; 4 h", "value": "7.17 ± 2.15"}, {"measurement": "biodistribution Liver", "setting": "[1]; 4 h", "value": "0.13 ± 0.01"}, {"measurement": "biodistribution Lung", "setting": "[1]; 4 h", "value": "0.08 ± 0.01"}, {"measurement": "biodistribution Muscle", "setting": "[1]; 4 h", "value": "0.09 ± 0.06"}, {"measurement": "biodistribution Small Intestine", "setting": "[1]; 4 h", "value": "0.12 ± 0.13"}, {"measurement": "biodistribution Spleen", "setting": "[1]; 4 h", "value": "0.06 ± 0.01"}, {"measurement": "biodistribution Stomach", "setting": "[1]; 4 h", "value": "0.50 ± 0.74"}, {"measurement": "biodistribution Tail", "setting": "[1]; 4 h", "value": "0.29 ± 0.18"}, {"measurement": "biodistribution Bladder", "setting": "[1]; 12 h", "value": "0.54 ± 0.26"}, {"measurement": "biodistribution Blood", "setting": "[1]; 12 h", "value": "0.02 ± 0.00"}, {"measurement": "biodistribution Bone", "setting": "[1]; 12 h", "value": "0.25 ± 0.07"}, {"measurement": "biodistribution Gall Bladder", "setting": "[1]; 12 h", "value": "2.45 ± 1.02"}, {"measurement": "biodistribution Heart", "setting": "[1]; 12 h", "value": "0.06 ± 0.01"}, {"measurement": "biodistribution Kidney", "setting": "[1]; 12 h", "value": "0.53 ± 0.23"}, {"measurement": "biodistribution Large Intestine", "setting": "[1]; 12 h", "value": "0.10 ± 0.03"}, {"measurement": "biodistribution Liver", "setting": "[1]; 12 h", "value": "0.09 ± 0.02"}, {"measurement": "biodistribution Lung", "setting": "[1]; 12 h", "value": "0.06 ± 0.01"}, {"measurement": "biodistribution Muscle", "setting": "[1]; 12 h", "value": "0.06 ± 0.01"}, {"measurement": "biodistribution Small Intestine", "setting": "[1]; 12 h", "value": "0.02 ± 0.01"}, {"measurement": "biodistribution Spleen", "setting": "[1]; 12 h", "value": "0.05 ± 0.01"}, {"measurement": "biodistribution Stomach", "setting": "[1]; 12 h", "value": "0.01 ± 0.00"}, {"measurement": "biodistribution Tail", "setting": "[1]; 12 h", "value": "0.11 ± 0.04"}, {"measurement": "Blood/Bone ratio", "setting": "[1]; 1 d", "value": "0.12 ± 0.02"}, {"measurement": "Muscle/Bone ratio", "setting": "[1]; 1 d", "value": "0.35 ± 0.09"}, {"measurement": "biodistribution Bladder", "setting": "[1]; 24 h", "value": "0.28 ± 0.14"}, {"measurement": "biodistribution Blood", "setting": "[1]; 24 h", "value": "0.02 ± 0.00"}, {"measurement": "biodistribution Bone", "setting": "[1]; 24 h", "value": "0.17 ± 0.03"}, {"measurement": "biodistribution Gall Bladder", "setting": "[1]; 24 h", "value": "1.15 ± 0.59"}, {"measurement": "biodistribution Heart", "setting": "[1]; 24 h", "value": "0.07 ± 0.01"}, {"measurement": "biodistribution Kidney", "setting": "[1]; 24 h", "value": "0.51 ± 0.29"}, {"measurement": "biodistribution Large Intestine", "setting": "[1]; 24 h", "value": "0.03 ± 0.02"}, {"measurement": "biodistribution Liver", "setting": "[1]; 24 h", "value": "0.06 ± 0.03"}, {"measurement": "biodistribution Lung", "setting": "[1]; 24 h", "value": "0.06 ± 0.05"}, {"measurement": "biodistribution Muscle", "setting": "[1]; 24 h", "value": "0.06 ± 0.01"}, {"measurement": "biodistribution Small Intestine", "setting": "[1]; 24 h", "value": "0.02 ± 0.00"}, {"measurement": "biodistribution Spleen", "setting": "[1]; 24 h", "value": "0.06 ± 0.01"}, {"measurement": "biodistribution Stomach", "setting": "[1]; 24 h", "value": "0.02 ± 0.00"}, {"measurement": "biodistribution Tail", "setting": "[1]; 24 h", "value": "0.05 ± 0.01"}, {"measurement": "Blood/Bone ratio", "setting": "[1]; […]", "value": "3.1 ± 1.5"}, {"measurement": "Muscle/Bone ratio", "setting": "[1]; […]", "value": "0.35 ± 0.16"}, {"measurement": "clearance route", "setting": "[1]; healthy mice", "value": "cleared through both renal and hepatobiliary excretion"}, {"measurement": "stability to transchelation by EDTA", "setting": "[2]", "value": "remains intact for the full 7 days"}, {"measurement": "partition coefficient (lipophilicity)", "setting": "[3]", "value": "more lipophilic than ^89Zr-DFO"}, {"measurement": "% INTACT STARTING SPECIES BY INCUBATION TIME | 1 h", "setting": "FIG. 2", "value": "99.8±0.4% and 99.3±1.3% and 99.0±1.8%"}, {"measurement": "% INTACT STARTING SPECIES BY INCUBATION TIME | 7 d", "setting": "FIG. 2", "value": "99.6±0.7% and 99.2±1.5%"}, {"measurement": "% INTACT STARTING SPECIES BY INCUBATION TIME | INITIAL", "setting": "FIG. 2", "value": "99.7±0.6% and 99.5±0.9%"}, {"measurement": "stability in human serum (ITLC and SEC)", "setting": "[4]", "value": "stable in serum over 7 days"}]}
